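Cultured in 96-well plates, cells were exposed to test compound for 48 hours across five concentrations. The concentration for 50% growth inhibition is given as GI50.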 Calls of active or inactive are those of the source. Cut-off read from the data, not from the text of the source: active = GI50 up to about 1.1 µM and inactive = higher.
What was measured:
Assay in all cases: NCI tumour cell line growth inhibition, 48 h
786-0 = tested on: 786-0
A498 = tested on: A498
A549 = tested on: A549
ACHN = tested on: ACHN
BT-549 = tested on: BT-549
CAKI-1 = tested on: CAKI-1
CCRF-CEM = tested on: CCRF-CEM
COLO 205 = tested on: COLO 205
DU-145 = tested on: DU-145
EKVX = tested on: EKVX
HCT-116 = tested on: HCT-116
HCT-15 = tested on: HCT-15
HL-60 = tested on: HL-60
HOP-62 = tested on: HOP-62
HT-29 = tested on: HT-29
Hs-578T = tested on: Hs-578T
IGROV-1 = tested on: IGROV-1
K562 = tested on: K562
KM12 = tested on: KM12
LOX IMVI = tested on: LOX IMVI
M14 = tested on: M14
MDA-MB-231 = tested on: MDA-MB-231
MDA-MB-435 = tested on: MDA-MB-435
Malme-3M = tested on: Malme-3M
NCI-H226 = tested on: NCI-H226
NCI-H23 = tested on: NCI-H23
NCI-H460 = tested on: NCI-H460
NCI-H522 = tested on: NCI-H522
NCI/ADR-RES = tested on: NCI/ADR-RES
OVCAR-3 = tested on: OVCAR-3
OVCAR-4 = tested on: OVCAR-4
OVCAR-5 = tested on: OVCAR-5
OVCAR-8 = tested on: OVCAR-8
PC-3 = tested on: PC-3
RPMI-8226 = tested on: RPMI-8226
RXF 393 = tested on: RXF 393
SF-268 = tested on: SF-268
SF-295 = tested on: SF-295
SK-MEL-28 = tested on: SK-MEL-28
SK-MEL-2 = tested on: SK-MEL-2
SK-MEL-5 = tested on: SK-MEL-5
SK-OV-3 = tested on: SK-OV-3
SN12C = tested on: SN12C
SNB-19 = tested on: SNB-19
SW-620 = tested on: SW-620
TK-10 = tested on: TK-10
U-251 = tested on: U-251
UACC-257 = tested on: UACC-257
UACC-62 = tested on: UACC-62
UO-31 = tested on: UO-31
HCC 2998 = tested on: HCC 2998
HOP-92 = tested on: HOP-92
MCF7 = tested on: MCF7
MDA-N = tested on: MDA-N
SNB-75 = tested on: SNB-75
T47D = tested on: T47D

Compound: CC1CC(N2CCOCC2)=Nc2ccccc2N1Cc1ccccc1 (configuration not stated)
- GI50 (786-0): > 100 µM (inactive)
- GI50 (A498): 20.5 µM (inactive)
- GI50 (A549): > 100 µM (inactive)
- GI50 (ACHN): > 100 µM (inactive)
- GI50 (BT-549): 66.2 µM (inactive)
- GI50 (CAKI-1): 25.2 µM (inactive)
- GI50 (CCRF-CEM): > 100 µM (inactive)
- GI50 (COLO 205): 30.9 µM (inactive)
- GI50 (DU-145): > 100 µM (inactive)
- GI50 (EKVX): 90.6 µM (inactive)
- GI50 (HCT-116): > 100 µM (inactive)
- GI50 (HCT-15): > 100 µM
- GI50 (HL-60): 29.8 µM (inactive)
- GI50 (HOP-62): 58.1 µM (inactive)
- GI50 (HT-29): 38.7 µM (inactive)
- GI50 (Hs-578T): 34.4 µM (inactive)
- GI50 (IGROV-1): 25.6 µM (inactive)
- GI50 (K562): 19 µM (inactive)
- GI50 (KM12): 68.7 µM (inactive)
- GI50 (LOX IMVI): 43.9 µM (inactive)
- GI50 (M14): > 100 µM (inactive)
- GI50 (MDA-MB-231): > 100 µM (inactive)
- GI50 (MDA-MB-435): 56.2 µM (inactive)
- GI50 (Malme-3M): 19 µM (inactive)
- GI50 (NCI-H226): 51.2 µM (inactive)
- GI50 (NCI-H23): > 100 µM (inactive)
- GI50 (NCI-H460): > 100 µM (inactive)
- GI50 (NCI-H522): 46.5 µM (inactive)
- GI50 (NCI/ADR-RES): 73.8 µM (inactive)
- GI50 (OVCAR-3): 43.9 µM (inactive)
- GI50 (OVCAR-4): 56.2 µM (inactive)
- GI50 (OVCAR-5): > 100 µM (inactive)
- GI50 (OVCAR-8): 88.5 µM (inactive)
- GI50 (PC-3): 50.6 µM (inactive)
- GI50 (RPMI-8226): 48.2 µM (inactive)
- GI50 (RXF 393): 16.1 µM (inactive)
- GI50 (SF-268): 74 µM (inactive)
- GI50 (SF-295): 57.7 µM (inactive)
- GI50 (SK-MEL-28): 49.1 µM (inactive)
- GI50 (SK-MEL-2): > 100 µM (inactive)
- GI50 (SK-MEL-5): 36.3 µM (inactive)
- GI50 (SK-OV-3): 61.2 µM (inactive)
- GI50 (SN12C): > 100 µM (inactive)
- GI50 (SNB-19): > 100 µM (inactive)
- GI50 (SW-620): > 100 µM (inactive)
- GI50 (TK-10): > 100 µM (inactive)
- GI50 (U-251): > 100 µM (inactive)
- GI50 (UACC-257): 38.3 µM (inactive)
- GI50 (UACC-62): 44.6 µM (inactive)
- GI50 (UO-31): > 100 µM (inactive)

Compound: CCCCc1c(C(=O)OC(C)(C)C)cc(C#Cc2cc(C(=O)OC(C)(C)C)c(CCCC)c(C(=O)OC(C)(C)C)c2)cc1C(=O)OC(C)(C)C
- GI50 (786-0): > 100 µM (inactive)
- GI50 (A498): > 100 µM (inactive)
- GI50 (A549): > 100 µM (inactive)
- GI50 (ACHN): > 100 µM (inactive)
- GI50 (BT-549): > 100 µM (inactive)
- GI50 (CAKI-1): > 100 µM (inactive)
- GI50 (COLO 205): > 100 µM (inactive)
- GI50 (DU-145): > 100 µM (inactive)
- GI50 (EKVX): > 100 µM (inactive)
- GI50 (HCC 2998): > 100 µM (inactive)
- GI50 (HCT-116): > 100 µM (inactive)
- GI50 (HCT-15): > 100 µM
- GI50 (HOP-62): > 100 µM (inactive)
- GI50 (HOP-92): > 100 µM (inactive)
- GI50 (IGROV-1): > 100 µM (inactive)
- GI50 (KM12): > 100 µM (inactive)
- GI50 (M14): > 100 µM (inactive)
- GI50 (MCF7): > 100 µM (inactive)
- GI50 (MDA-MB-231): > 100 µM (inactive)
- GI50 (MDA-MB-435): > 100 µM (inactive)
- GI50 (MDA-N): > 100 µM (inactive)
- GI50 (Malme-3M): > 100 µM (inactive)
- GI50 (NCI-H226): > 100 µM (inactive)
- GI50 (NCI-H23): > 100 µM (inactive)
- GI50 (NCI-H460): > 100 µM (inactive)
- GI50 (NCI-H522): > 100 µM (inactive)
- GI50 (NCI/ADR-RES): > 100 µM (inactive)
- GI50 (OVCAR-3): > 100 µM (inactive)
- GI50 (OVCAR-4): > 100 µM (inactive)
- GI50 (OVCAR-5): > 100 µM (inactive)
- GI50 (PC-3): > 100 µM (inactive)
- GI50 (RPMI-8226): > 100 µM (inactive)
- GI50 (SF-268): > 100 µM (inactive)
- GI50 (SF-295): > 100 µM (inactive)
- GI50 (SK-MEL-28): > 100 µM (inactive)
- GI50 (SK-MEL-2): > 100 µM (inactive)
- GI50 (SK-MEL-5): > 100 µM (inactive)
- GI50 (SK-OV-3): > 100 µM (inactive)
- GI50 (SN12C): > 100 µM (inactive)
- GI50 (SNB-19): > 100 µM (inactive)
- GI50 (SNB-75): > 100 µM (inactive)
- GI50 (T47D): > 100 µM (inactive)
- GI50 (TK-10): > 100 µM (inactive)
- GI50 (U-251): > 100 µM (inactive)
- GI50 (UACC-257): > 100 µM (inactive)
- GI50 (UACC-62): > 100 µM (inactive)
- GI50 (UO-31): > 100 µM (inactive)

— ChEMBL document CHEMBL1201862, “PubChem BioAssay data set” (2004)
